The structures appear in SMILES notation.

The values below come from patent US20230338391A1, “TREATMENT FOR DEPRESSION” (TAKEDA PHARMACEUTICAL COMPANY LIMITED, priority 2020, published 2023).

The data set concerns healthy subjects. As to the kind of experiment: TMS crossover study: safety and tolerability. The following applies: 0.5 mg/kg IV infusion, 20 subjects.

As to `CNC1(c2ccccc2Cl)CCCCC1=O` (stereo not shown) [ketamine, reference compound], the “discontinuation because of AEs” value was “One subject in the ketamine treatment was discontinued from study drug because of AEs”.
